According to BindingDB's records for doi:10.1021/jm00128a043 (Wellcome Research Laboratories, 1989):

Experiments:
[1] = Inhibition of Staphylococcus aureus DHFR
[2] = Antibacterial activity against Staphylococcus aureus

Compound | Ki [1] | Ki [2]
CCCOc1cc(Cc2cnc(N)nc2N)cc(OC)c1OC | 1.4 nM | –
C=CCc1cc(Cc2cnc(N)nc2N)cc(OC)c1OC | 2.8 nM | –
CCCc1cc(Cc2cnc(N)nc2N)cc(CCC)c1OC | – | 3.2 nM

Second part, the molecule after the results:

Ki [1] | Ki [2] | Compound
1.4 nM | – | C/C=C/c1cc(Cc2cnc(N)nc2N)cc(OC)c1OC
2.5 nM | – | CCOc1cc(Cc2cnc(N)nc2N)cc(OC)c1OC
– | 3 nM | C=CCOc1cc(Cc2cnc(N)nc2N)cc(OC)c1OC
